“Also recorded” adds a separate entry of the source. Marks after values point to notes of the source that are not given here.
Tests used:
[1] = test system: Chinese patients with previously treated locally advanced or metastatic urothelial carcinoma; assay: EV-203 phase 2: antitumor activity per RECIST v1.1 (IRC and investigator), PFS, OS; assay type: in vivo, human; conditions: for Confirmed disease control rate (95% CI): CR, PR or stable disease; for Duration of response, median (95% CI): NE = not evaluable; for Confirmed best overall response: Stable disease: minimum duration 49 days; for Confirmed objective response rate (95% CI): RECIST v1.1, 1.25 mg/kg
Excerpt: This was a single‐arm, open‐label phase 2 study that enrolled patients from six centers in China. Up to 40 patients were planned for enrollment. Two of the study centers were designated as PK cohort sites and planned to enroll 12 or more patients who agreed to intensive PK sampling for PK analysis in addition to safety and efficacy assessments.
The study enrolled Chinese adults (age ≥ 18 years or considered an adult per local regulations) with histologically or cytologically confirmed UC/transitional cell carcinoma of the bladder, renal pelvis, ureter, or urethra not amenable to curative intent treatment. Patients with other histologies, including adenocarcinoma, squamous differentiation, or mixed, were also eligible. Patients must have received prior treatment with platinum‐based chemotherapy and PD‐1/L1 inhibitor therapy in the locally advanced or metastatic setting or in the neoadjuvant or adjuvant setting with recurrence or progressive disease during therapy or within 12 months (platinum‐based chemotherapy) or 3 months (PD‐1/L1 inhibitor) of completion of treatment; had baseline measurable disease according to Response Evaluation Criteria in Solid Tumors (RECIST) version 1.1; and an Eastern Cooperative Oncology Group performance status (ECOG PS) of 0–1. Key exclusion criteria were preexisting grade 2 or higher sensory/motor neuropathy; active central nervous system metastases; clinically significant toxicity associated with prior treatment; ongoing grade 3 or higher immunotherapy‐related hypothyroidism or panhypopituitarism, ongoing immunotherapy‐related colitis, uveitis, myocarditis, or pneumonitis; other immunotherapy‐related adverse events (AEs) requiring high‐dose steroids (prednisone > 20 mg/day or equivalent); or history of uncontrolled diabetes mellitus (glycated hemoglobin ≥ 8% or between 7% and < 8% with diabetes‐related symptoms not otherwise explained) within 3 months prior to the first study dose.
Study treatment continued until one or more of the following occurred: patient or investigator decision; documented radiologic disease progression per RECIST version 1.1 by investigator assessment; start of new anticancer therapy; unacceptable toxicity; pregnancy; protocol noncompliance; or more than six consecutive doses of study treatment missed by the patient. Prespecified dose modifications were permitted depending on AE type and severity.
Antitumor activity was assessed every 8 weeks (±1 week) via computed tomography with contrast. After 1 year of study, imaging frequency was reduced to every 12 weeks (±1 week). Complete response (CR) and partial response (PR; per RECIST version 1.1) were confirmed by repeat scans conducted at least 4 weeks after the initial response. Responses were assessed by investigators and an independent review committee (IRC). Tumor assessments were continued until the study end or the first occurrence of radiologic disease progression per RECIST version 1.1, as determined by investigator assessment, the patient initiated new anticancer therapy, or the patient died, withdrew study consent, or was lost to follow‐up.
The primary efficacy endpoint was confirmed ORR as assessed by IRC. The ORR was defined as the proportion of patients with CR or PR according to RECIST version 1.1. […] Other primary endpoints included selected PK parameters of ADC, TAb, and free MMAE.
Secondary endpoints were confirmed ORR by investigator assessment; DOR, disease control rate (DCR), and progression‐free survival (PFS) by IRC and investigator assessments; OS; incidence of ATAs to ADC; and safety/tolerability. PFS was defined as the time from the start of the study treatment to the first documentation of objective tumor progression (i.e., progressive disease per RECIST version 1.1) by IRC or investigator assessment (whichever was specified) or to death due to any cause, whichever came first. OS was defined as the time from the start of study treatment to the date of death due to any cause. […]

[2] = test system: patients with locally advanced or mUC previously treated with platinum-based chemotherapy and PD-1/L1 inhibitors; conditions: cited from earlier work
[3] = test system: patients with previously treated locally advanced or mUC; conditions: EV-301; cited from earlier work
[4] = EV-203 immunogenicity: antitherapeutic antibodies (ATAs) against enfortumab vedotin; assay type: in vivo, human; conditions: 38 participants tested
Experimental: In the PK cohort (i.e., PK analysis set), intensive PK sampling was performed wherein blood samples for analysis of ADC, total antibody (TAb), and free (unconjugated) MMAE were collected at prespecified time points. […] Blood samples for antitherapeutic antibodies (ATAs) were collected predose on Day 1 of cycles 1 to 4, 6, 8, 10, and within 30–37 days after the last study dose. Validated assays were used to measure concentrations of ADC, TAb, and free MMAE in serum or plasma and to assess ATA levels.
Secondary endpoints were confirmed ORR by investigator assessment; DOR, disease control rate (DCR), and progression‐free survival (PFS) by IRC and investigator assessments; OS; incidence of ATAs to ADC; and safety/tolerability. PFS was defined as the time from the start of the study treatment to the first documentation of objective tumor progression (i.e., progressive disease per RECIST version 1.1) by IRC or investigator assessment (whichever was specified) or to death due to any cause, whichever came first. OS was defined as the time from the start of study treatment to the date of death due to any cause. […] Data for treatment‐related AEs (TRAEs) were evaluated by the investigator.

Substance: enfortumab vedotin: fully human monoclonal ADC directed to Nectin-4, delivering intracellular monomethyl auristatin E (MMAE) to tumor cells
- Median time to response ([1]; IRC assessment): 1.8 (range, 1.7–3.8) months
- Median PFS ([1]; IRC assessment, N = 40): 4.7 months
- Best overall response PR, patients ([1]; IRC, 14 patients): 35.0%
- Patients with reductions of 30% or more from baseline in target lesions ([1]; IRC, 24 of 37 patients): 64.9%
- Patients with reduction in sum of diameters of target lesions from baseline ([1]; IRC, 33 of 37 patients with baseline and postbaseline assessments): 89.2%
- Confirmed disease control rate (95% CI) ([1]; IRC, N = 40): 72.5 (56.1–85.4) %
- Rate of duration of response (95% CI) at 6 months ([1]; IRC, Kaplan–Meier): 59.7 (22.2–83.8) %
- Duration of response, median (95% CI) ([1]; IRC, Kaplan–Meier): not reached; also recorded: NE (2.04–NE)
- Confirmed best overall response: CR ([1]; IRC, N = 40): 1 (2.5) n (%)
- Confirmed best overall response: NE (not evaluable) ([1]; IRC, N = 40): 4 (10.0) n (%)
- Confirmed best overall response: PR ([1]; IRC, N = 40): 14 (35.0) n (%)
- Confirmed best overall response: Progressive disease ([1]; IRC, N = 40): 7 (17.5) n (%)
- Confirmed best overall response: Stable disease ([1]; IRC, N = 40): 14 (35.0) n (%)
- Confirmed objective response rate (95% CI) ([1]; IRC, N = 40): 37.5 (22.7–54.2) ^b %
- ORR, subgroup patients with liver metastases ([1]; IRC, n/N = 5/11): 45.5%
- ORR, subgroup three or more lines of systemic therapy ([1]; IRC, n/N = 6/18): 33.3%
- ORR, subgroup baseline ECOG PS of 0 ([1]; IRC, n/N = 7/10): 70.0%
- ORR, subgroup primary tumor site bladder or other ([1]; IRC, n/N = 7/11): 63.6%
- ORR, subgroup primary tumor site upper tract ([1]; IRC, n/N = 8/29): 27.6%
- ORR, subgroup baseline ECOG PS of 1 ([1]; IRC, n/N = 8/30): 26.7%
- Best overall response CR, patients ([1]; IRC, one patient): 2.5%
- Confirmed disease control rate (95% CI) ([1]; Investigator, N = 40): 82.5 (67.2–92.7) %
- Rate of duration of response (95% CI) at 6 months ([1]; Investigator, Kaplan–Meier): 61.1 (26.2–83.4) %
- Duration of response, median (95% CI) ([1]; Investigator, Kaplan–Meier): not reached; also recorded: NE (2.04–NE)
- Confirmed best overall response: CR ([1]; Investigator, N = 40): 0 n (%)
- Confirmed best overall response: NE (not evaluable) ([1]; Investigator, N = 40): 3 (7.5) n (%)
- Confirmed best overall response: PR ([1]; Investigator, N = 40): 17 (42.5) n (%)
- Confirmed best overall response: Progressive disease ([1]; Investigator, N = 40): 4 (10.0) n (%)
- Confirmed best overall response: Stable disease ([1]; Investigator, N = 40): 16 (40.0) n (%)
- Confirmed objective response rate (95% CI) ([1]; Investigator, N = 40): 42.5 (27.0–59.1) %
- Overall survival at 6 months (95% CI) ([1]; Kaplan–Meier, N = 40): 78.0 (60.1–88.6) %
- Median PFS ([1]; investigator assessment, N = 40): 4.2 months
- Median OS ([1]; median follow-up 6.5 months): not reached (lower bound of 95% CI: 6.74)
- Median duration of response (DOR) ([2]; EV-201): 7.6 months
- Objective response rate (ORR) ([2]; EV-201 cohort 1 (n = 125)): 44%
- Median OS [3]: 12.88 months
- Median PFS [3]: 5.6 months
- Probability of OS at 6 months [3]: approximately 80%
- Incidence of positive ATAs postbaseline [4]: 0%

From paper PMC11555717 (Cancer Medicine, 2024)
